According to patent publication US12692259B2, “Morpholine-containing and piperazine-containing CXCR4 modulators and uses related thereto” (Emory University, priority 2021, dated 2026):

Assays:
[1] = biological target: CYP450 isoforms 3A4 (Homo sapiens, UniProt P08684); details: cited from earlier work
[2] = biological target: CYP450 isoforms 2D6 (Homo sapiens, UniProt P10635); details: cited from earlier work
[3] = biological target: T1, CYP3A4 (Homo sapiens, UniProt P08684); assay: Fluorometric CYP450 inhibition assay, CYP3A4; format: in vitro ADME; details: read-out: CYP450 IC50 (μM) 3A4
T1 construct: purchased Corning; host or cells: insect cells (microsomes)
Description: (§1) The CYP450 inhibition assays utilized microsomes from insect cells expressing human recombinant individual cDNA-expressed CYP isoforms 3A4 and 2D6, as well as the fluorogenic probe that produces fluorescent metabolite. Standard inhibitors were co-incubated with fluorogenic substrates and their inhibitory potential (IC50) was determined. Assay conditions in terms of CYP450 protein concentration and time of incubation were standardized, enzyme kinetics parameters of each fluorescent probe substrate were estimated and IC50 values of inhibitors were determined and validated on different days to check reproducibility.
(§2) A 100 mM sodium phosphate buffer was prepared and adjusted to pH 7.4. In a separate falcon tube, a 2× enzyme/substrate (E/S) solution was prepared in phosphate buffer. The final concentration of CYP2D6 (CORNING®) and 7-amido-4-methyl coumaric acid (AMMC) was 10 nM and 4 μM, and CYP3A4 (CORNING®) and 7-benzyloxy-4-(trifluoromethyl) coumarin (BFC) was 20 nM and 40 μM, respectively. In a separate falcon tube, a 2×NADPH regenerating system (NRS) was prepared in phosphate buffer.
(§3) Both enzymatic assays were conducted in a 96-well microtiter plate (Black, CORNING® COSTAR®) with a final volume of 100 μL. Preparation of the plate began with the addition of 74 μL of the E/S in the first well, and 50 μL to all subsequent wells (from 2-11). […] A 1:3 serial dilution of the test compound was conducted by removing 25 μL from the first well and diluting it with the second and so forth until the tenth row. Final concentrations yielded a range from 200 μM-0.01 μM. Well no. 11 contained no inhibitor, and well no. 12 contained no enzyme. Both were used as controls for background fluorescence. The plate was incubated for 30 min at 37° C. After incubation, the reaction was initiated by the addition of 50 μL of the 2×NRS to each well.
(§4) Immediately (within 1 min) the fluorescence was measured using a microplate reader (BIOTEK® Synergy Neo2). […] Data was exported and analyzed using Graph Pad Prism 7. […] The IC50 value was derived after the data was fitted on a 10-point curve using a four-parameter logistic regression model.

[4] = biological target: T2, CYP2D6 (Homo sapiens, UniProt P10635); assay: Fluorometric CYP450 inhibition assay, CYP2D6; format: in vitro ADME; details: read-out: CYP450 IC50 (μM) 2D6
T2 construct: purchased Corning; host or cells: insect cells (microsomes)
Description: as §1, §2, §3, §4

[5] = Metabolic stability assay, human liver microsomes (HLM); format: in vitro ADME; details: 10 min
Excerpt: Controls were processed and analyzed like the test compounds.

[6] = in vitro; details: mouse, 10 min, 3 µM, pH 7.4
Description: Metabolic stability assay was performed at Emory University's Department of Chemistry or by Bristol Myers Squibb. The method used by Emory University's Department of Chemistry is described below.
Each method was developed in the presence of an internal standard (ISTD) d5-7-ethoxy coumarin. The column temperature was maintained at 40° C. for most of the samples otherwise noted. The detection was operated in the Agilent JetStream electrospray positive ionization using multiple reaction monitoring mode (MRM).
Other MS conditions were as follows: dwell time 100 ms; gas flow 10 L/min; nebulizer pressure 45 psi; delta EMV 200 V; fragmentor voltage and collision energy for individual compounds vary.
Test compounds were dissolved in 100% DMSO or 100% MeOH to make 10 mM stock solutions. Verapamil (Sigma Aldrich) aided as a positive control and was dissolved in 100% DMSO to make 10 mM stock solutions. The 10 mM stock solution of test and control compounds were further diluted in potassium phosphate buffer (100 mM, pH 7.4) to 500 μM to ensure the organic solvent content was <0.2%. Human liver microsomes (HLMs) were purchased from Xenotech at 20 mg/mL. NADPH (Sigma Aldrich) 10 mM stocks were prepared in deionized water.
The HLM assay was prepared in a 1.5 mL Eppendorf tube with a final volume of 1100 μL for duplicate runs. Each reaction contained phosphate buffer (928.4 μL), liver microsomes (55 μL), and test compound resulting in a final concentration of 3 μM (6.6 μL of 500 μM). The reaction was initiated with 110 μL of 10 mM NADPH. […] Before centrifugation each of the aliquoted tubes were vortexed to make sure compounds were in the solution. The aliquots were centrifuged at 12,000 g for 5 min and the supernatant removed and placed in an LC-MS vial. Each time point was assessed using LC-MS and the area, based on the extracted ion, was integrated with respect to the ISTD. […] A no-NADPH negative control with test or control compound was performed in a single run (150 μL) at the longest time point. Controls were processed and analyzed like the test compounds. Each time point was run in duplicates followed by in-between blank washes to avoid the carryover and to equilibrate the column.
The MLM assay was performed using the same procedures as those described above for the HLM assay.

[7] = PAMPA assay; format: in vitro ADME; details: pH 7.4
Description: PAMPA assay was performed by BioAssay Systems Services or Bristol Myers Squibb. The method used by BioAssay Systems Services is described below.
Stock solutions in DMSO for all compounds (10 mM) were thawed. The assay was performed in duplicate by following the PAMPA-096 procedure for sample plating. 4% Lecithin in dodecane solution was prepared by resuspending the dried lecithin with 750 μL dodecane. PBS pH 7.4 was used as the diluent. Two sets of plates and equilibrium solutions were incubated for 4 hours at room temperature. Acceptor and equilibrium solutions were analyzed in a UV plate. OD280 nm was used for High Permeability Control (chloramphenicol). OD270 nm was used for Medium Permeability Control (diclofenac) and Low Permeability Control (theophylline). OD254 nm was used for the test compounds.
Data analysis was performed by using the peak absorbance for each respective test compound and Permeability Control to determine the Permeability Rate (Pe) via the following equation: […]
where ODA is the absorbance of Acceptor Solution, ODE is the absorbance of the Equilibrium Standard, and C is determined by the equation below: […]
where Donor Volume (VD) is 0.2 cm^3, Acceptor Volume (VA) is 0.3 cm^3, and Membrane Area (Area) is 0.24 cm^2.

[8] = biological target: T3, CXCR4 (Homo sapiens, UniProt P61073); assay: Calcium flux assay (antagonist mode, SDF-1α challenge); format: cell-based; parameters: Eurofins or Bristol Myers Squibb (contract assay); details: read-out: CXCR4 Ca^+2 Flux IC50
Description: Calcium flux assay was performed by Eurofins or Bristol Myers Squibb. The method used by Eurofins is described below.
Compound plate preparation: Vehicle controls and positive controls were prepared to ensure all assays were properly controlled. All wells were prepared using the Eurofins Discovery Services GPCRProfiler® Assay Buffer. The GPCRProfiler® Assay Buffer was a modified Hanks Balanced Salt Solution (HBSS) where HBSS was supplemented to contain 20 mM HEPES and 2.5 mM Probenecid at pH 7.4.
Agonist assay (first addition): Compound(s) supplied were plated in duplicate for each concentration assayed. During the agonist assay, the concentration(s) reflects accommodation for the dilution of compound during the antagonist assay. Please see below for further details. […] The reference agonist for each GPCR was included at Emax (the concentration where the reference agonist elicited a maximal response). The agonist assay was conducted on a FLIPR^TETRA instrument where the test compound(s), vehicle controls, and reference agonist were added to the assay plate after a fluorescence/luminescence baseline was established. The agonist assay was a total of 180 seconds and was used to assess each compound's ability to activate each GPCR assayed. Upon completion of the three minute agonist assay, the assay plate was incubated at 25° C. for a further two minutes. After the incubation period the antagonist assay was initiated.
The antagonist assay was conducted using the same assay plate that was used for the agonist assay. The antagonist assay was conducted on a FLIPR^TETRA instrument where vehicle controls and challenge concentration of reference agonist were added to appropriate wells. The antagonist assay was a total of 180 seconds and was used to assess each compound's ability to inhibit each GPCR assayed.
Data Processing—All plates were subjected to appropriate baseline corrections. Once baseline corrections were processed, maximum fluorescence/luminescence values were exported, and data manipulated to calculate percentage activation and percentage inhibition. […] Data manipulation calculation is as followed: ((Max RLU)−(Baseline Avg.))/((Positive Avg.)−(Baseline Avg.)).

[9] = biological target: T3, CXCR4; assay: cAMP assay in CXCR4-CHO-Glo cells (GloSensor, forskolin + SDF-1α); format: cell-based; parameters: expressed in transfected cells
Excerpt: Materials, reagents, and instrument—Advanced DMEM (Gibco), trypsin EDTA (0.05%, phenol red), L-glutamine, HBSS buffer with and without Ca^2+/Mg^2+ (Gibco), antibiotic-antimycotic (Gibco), hygromycin B, and geneticin selective antibiotic (G418 sulfate) were purchased from Invitrogen. Forskolin (Tocris), SDF-1α (R&D Systems), HEPES (Sigma Aldrich), FBS (Atlanta Biologicals), D-luciferin (Gold Biotechnology), sterile 60 mm tissue culture dishes, and 96-well sterile tissue culture plates were purchased from Corning.
The assay targeted CXCR4 expressed in CHO-gloSensor cells. It monitored GPCR activation based on forskolin-stimulated cAMP production in cells. The assay used a genetically encoded biosensor with its cAMP binding domain fused to luciferase. Binding of cAMP to the cAMP binding domain changed the conformation of the biosensor, leading to the activation of luciferase. The intensity of the luciferase signal (light output) resulted from the oxidation of D-luciferin to oxyluciferin is proportional to the amount of cAMP produced in the cells.
The assay was performed in triplicate using live cells in 96-well tissue culture plates. Cells were pre-incubated in the dark at room temperature for one hour in the presence of D-luciferin. Bioluminescence was quantified before and after the agonist/antagonist addition. Stock solution of forskolin and SDF-1a, was prepared in Locke-Luc buffer. Stock solutions of the test compounds were prepared in DMSO (10 mM); they were diluted by Locke's buffer for use in the assay.
CHO-Glo cells, a cell line stably expressing the GloSensor cAMP biosensor (Promega), were transfected with cDNA encoding human CXCR4 in Pires-AcGFP1 (Clontech) and a stable cell line was isolated (CXCR4-CHO-Glo cells). The CXCR4-CHO-Glo cells were grown to confluency on 60 mm tissue culture dishes. After trypsinization, the cells were plated on 96-well plates and incubated overnight. The next day, culture media in each well was aspirated and replaced with 100 μL Locke's buffer containing 4 mM D-luciferin, followed by incubation in the dark for one hour. Before the addition of agonist/antagonist, each plate was read five times at 2 min intervals to obtain basal bioluminescence values from each well. The average of these five pre-readings was used to normalize each well's response to account for differences in GloSensor expression and cell density. After five pre-readings, cAMP formation was initiated with the addition of 50 μL solution of test compound (TC) in Locke Luc buffer containing forskoline and SDF-1α. […] Luminescence was measured immediately after the addition of the antagonist solution. The measurements were taken every two minutes for 30 minutes in kinetics mode after antagonist addition. IC50 values were calculated from the 4-parameter logistic equation using Prism GraphPad.

T1 sequence (P08684 whole entry): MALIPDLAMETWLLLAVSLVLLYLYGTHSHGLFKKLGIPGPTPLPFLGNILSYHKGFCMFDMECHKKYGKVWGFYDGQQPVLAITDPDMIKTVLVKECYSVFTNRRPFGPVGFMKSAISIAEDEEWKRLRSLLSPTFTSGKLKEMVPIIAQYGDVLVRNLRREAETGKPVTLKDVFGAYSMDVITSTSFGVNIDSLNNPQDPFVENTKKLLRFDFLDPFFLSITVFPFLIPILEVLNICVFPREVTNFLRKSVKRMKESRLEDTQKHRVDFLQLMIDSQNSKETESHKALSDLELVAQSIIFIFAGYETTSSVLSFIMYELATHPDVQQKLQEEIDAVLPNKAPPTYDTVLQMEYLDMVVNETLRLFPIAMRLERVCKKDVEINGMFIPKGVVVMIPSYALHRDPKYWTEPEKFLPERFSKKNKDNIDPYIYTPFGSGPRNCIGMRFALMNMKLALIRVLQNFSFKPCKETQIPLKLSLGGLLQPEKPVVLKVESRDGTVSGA
T3 sequence (P61073 whole entry): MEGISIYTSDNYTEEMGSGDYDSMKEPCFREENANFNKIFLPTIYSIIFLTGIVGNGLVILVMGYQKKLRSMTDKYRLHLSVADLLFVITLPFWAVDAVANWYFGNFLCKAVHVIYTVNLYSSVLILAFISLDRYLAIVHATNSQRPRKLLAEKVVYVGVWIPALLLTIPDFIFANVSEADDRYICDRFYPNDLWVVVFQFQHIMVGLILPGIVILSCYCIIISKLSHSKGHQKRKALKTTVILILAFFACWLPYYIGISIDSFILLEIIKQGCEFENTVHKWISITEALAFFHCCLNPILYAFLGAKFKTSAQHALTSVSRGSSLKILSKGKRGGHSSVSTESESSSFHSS
T2 sequence (P10635 whole entry): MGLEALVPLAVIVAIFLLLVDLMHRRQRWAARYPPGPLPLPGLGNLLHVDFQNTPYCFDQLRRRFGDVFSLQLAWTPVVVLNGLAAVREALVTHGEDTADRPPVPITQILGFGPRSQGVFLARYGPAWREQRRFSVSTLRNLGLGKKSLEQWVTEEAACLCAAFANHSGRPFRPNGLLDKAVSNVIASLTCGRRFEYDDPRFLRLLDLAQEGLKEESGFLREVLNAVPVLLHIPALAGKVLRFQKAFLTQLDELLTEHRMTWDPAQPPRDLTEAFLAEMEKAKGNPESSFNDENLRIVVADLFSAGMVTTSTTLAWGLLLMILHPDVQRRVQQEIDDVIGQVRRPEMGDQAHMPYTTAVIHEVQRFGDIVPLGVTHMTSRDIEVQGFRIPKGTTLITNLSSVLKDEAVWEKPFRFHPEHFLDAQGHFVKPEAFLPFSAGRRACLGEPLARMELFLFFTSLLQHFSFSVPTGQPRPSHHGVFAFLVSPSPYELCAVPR
CYP450 isoforms 3A4, sequence (P08684 whole entry, canonical isoform): as the sequence (P08684 whole entry) above
CYP450 isoforms 2D6, sequence (P10635 whole entry, canonical isoform): as the sequence (P10635 whole entry) above

SMILES | IC50 [3] [µM] | IC50 [4] [µM] | Liver Microsomes % rem. @ 10 min. H [5] [%] | Liver Microsomes % rem. @ 10 min. M [6] [%] | Papp at 4 h [7] [×10⁻⁶ cm/s] | IC50 [8] [nM] | IC50 [9] [nM] | inhibition of CYP450 isoform 3A4 [1] | inhibition of CYP450 isoform 2D6 [2]
NCCCCN(Cc1nc2ccccc2[nH]1)[C@H]1CCCc2cccnc21 [AMD11070, mavorixafor] |  |  |  |  |  |  |  | significant inhibition | significant inhibition
c1ccc2c(c1)CN[C@@H](CN(CCCCN1CCOCC1)[C@H]1CCCc3cccnc31)C2 [EMU-178] | > 20 | 0.44 | 52.6 | 3.68 | 21.2 | 82.5 |  |  | 
c1cnc2c(c1)CN[C@H](CN(CCCCN1CCOCC1)[C@@H]1CCCc3cccnc31)C2 [EMU-204, (R)—N-(4-morpholinobutyl)-N—(((S)-5,6,7,8-tetrahydro-1,6-naphthyridin-7-yl)methyl)-5,6,7,8-tetrahydroquinolin-8-amine] | > 20 | > 20 | 100 | 19.6 | 21.5 | 270 |  |  | 
CN(C[C@H]1Cc2c(cccc2N2CCN(C(=O)OCc3ccccc3)CC2)CN1)[C@H]1CCCc2cccnc21 [EMU-291] | > 20 | > 20 | 35.6 | 66.4 |  |  | 2320 |  | 

More lines, main results first:

IC50 [3] [µM] | IC50 [4] [µM] | Liver Microsomes % rem. @ 10 min. H [5] [%] | Liver Microsomes % rem. @ 10 min. M [6] [%] | Papp at 4 h [7] [×10⁻⁶ cm/s] | IC50 [8] [nM] | IC50 [9] [nM] | SMILES | inhibition of CYP450 isoform 3A4 [1] | inhibition of CYP450 isoform 2D6 [2]
 |  | 87.1 | 78.3 | 7.6 |  | 492 | CN(C[C@H]1Cc2c(cccc2N2CCN(C(N)=O)CC2)CN1)[C@H]1CCCc2cccnc21 [EMU-326, 4-((R)-3-((methyl((S)-5,6,7,8-tetrahydroquinolin-8-yl)amino)methyl)-1,2,3,4-tetrahydroisoquinolin-5-yl)piperazine-1-carboxamide] |  | 
 |  | 11.00 | 38.10 | 12.2 |  | 684 | CN(C)C(=O)N1CCN(c2cccc3c2C[C@H](CN(C)[C@H]2CCCc4cccnc42)NC3)CC1 [EMU-327, N,N-dimethyl-4-((R)-3-((methyl((S)-5,6,7,8-tetrahydroquinolin-8-yl)amino)methyl)-1,2,3,4-tetrahydroisoquinolin-5-yl)piperazine-1-carboxamide] |  | 
